Data as given in patent US11572590B2, “Methods for evaluating tumor cell spheroids using 3D microfluidic cell culture device” (Dana-Farber Cancer Institute, Inc., priority 2017, dated 2023).
Like-named read-outs stand apart in the source and are kept apart here.

Columns and labels:
Assay in all cases: SelectScreen Kinase Profiling, single point inhibition and IC50 for off-target kinases
Format in all cases: biochemical
off-target kinases [1] = molecular target: off-target kinases (Homo sapiens, UniProt Q99558); settings: MAP3K14 (NIK), LanthaScreen Binding
off-target kinases (Homo sapiens, UniProt Q99558), sequence (Q99558 whole entry): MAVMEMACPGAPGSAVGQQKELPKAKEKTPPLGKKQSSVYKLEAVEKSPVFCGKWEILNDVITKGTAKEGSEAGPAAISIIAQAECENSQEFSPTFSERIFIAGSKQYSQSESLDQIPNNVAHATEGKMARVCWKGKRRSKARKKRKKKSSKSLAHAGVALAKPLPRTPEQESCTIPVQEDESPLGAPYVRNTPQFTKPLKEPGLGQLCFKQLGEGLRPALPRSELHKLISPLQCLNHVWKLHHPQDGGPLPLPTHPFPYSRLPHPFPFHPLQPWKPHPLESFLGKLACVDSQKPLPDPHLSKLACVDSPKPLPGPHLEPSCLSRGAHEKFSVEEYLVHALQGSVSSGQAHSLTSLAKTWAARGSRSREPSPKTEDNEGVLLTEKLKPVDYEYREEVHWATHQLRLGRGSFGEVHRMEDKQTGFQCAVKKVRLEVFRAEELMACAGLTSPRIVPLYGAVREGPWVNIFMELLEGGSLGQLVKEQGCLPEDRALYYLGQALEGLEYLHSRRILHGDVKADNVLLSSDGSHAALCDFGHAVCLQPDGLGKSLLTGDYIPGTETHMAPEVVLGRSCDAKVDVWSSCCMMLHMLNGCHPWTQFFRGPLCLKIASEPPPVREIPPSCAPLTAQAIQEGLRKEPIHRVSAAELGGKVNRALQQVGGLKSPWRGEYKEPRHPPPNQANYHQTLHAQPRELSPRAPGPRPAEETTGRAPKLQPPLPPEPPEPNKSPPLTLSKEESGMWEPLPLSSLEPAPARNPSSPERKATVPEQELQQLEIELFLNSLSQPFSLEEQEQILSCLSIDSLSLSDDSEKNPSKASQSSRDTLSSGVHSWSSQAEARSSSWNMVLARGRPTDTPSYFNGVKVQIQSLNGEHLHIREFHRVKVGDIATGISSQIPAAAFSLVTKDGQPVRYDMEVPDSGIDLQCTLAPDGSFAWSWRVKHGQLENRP

off-target kinases [2] = molecular target: off-target kinases (Homo sapiens, UniProt Q5S007, G2019S); settings: ATP Km app, Adapta
off-target kinases (Homo sapiens, UniProt Q5S007, G2019S), sequence (Q5S007 whole entry G2019S): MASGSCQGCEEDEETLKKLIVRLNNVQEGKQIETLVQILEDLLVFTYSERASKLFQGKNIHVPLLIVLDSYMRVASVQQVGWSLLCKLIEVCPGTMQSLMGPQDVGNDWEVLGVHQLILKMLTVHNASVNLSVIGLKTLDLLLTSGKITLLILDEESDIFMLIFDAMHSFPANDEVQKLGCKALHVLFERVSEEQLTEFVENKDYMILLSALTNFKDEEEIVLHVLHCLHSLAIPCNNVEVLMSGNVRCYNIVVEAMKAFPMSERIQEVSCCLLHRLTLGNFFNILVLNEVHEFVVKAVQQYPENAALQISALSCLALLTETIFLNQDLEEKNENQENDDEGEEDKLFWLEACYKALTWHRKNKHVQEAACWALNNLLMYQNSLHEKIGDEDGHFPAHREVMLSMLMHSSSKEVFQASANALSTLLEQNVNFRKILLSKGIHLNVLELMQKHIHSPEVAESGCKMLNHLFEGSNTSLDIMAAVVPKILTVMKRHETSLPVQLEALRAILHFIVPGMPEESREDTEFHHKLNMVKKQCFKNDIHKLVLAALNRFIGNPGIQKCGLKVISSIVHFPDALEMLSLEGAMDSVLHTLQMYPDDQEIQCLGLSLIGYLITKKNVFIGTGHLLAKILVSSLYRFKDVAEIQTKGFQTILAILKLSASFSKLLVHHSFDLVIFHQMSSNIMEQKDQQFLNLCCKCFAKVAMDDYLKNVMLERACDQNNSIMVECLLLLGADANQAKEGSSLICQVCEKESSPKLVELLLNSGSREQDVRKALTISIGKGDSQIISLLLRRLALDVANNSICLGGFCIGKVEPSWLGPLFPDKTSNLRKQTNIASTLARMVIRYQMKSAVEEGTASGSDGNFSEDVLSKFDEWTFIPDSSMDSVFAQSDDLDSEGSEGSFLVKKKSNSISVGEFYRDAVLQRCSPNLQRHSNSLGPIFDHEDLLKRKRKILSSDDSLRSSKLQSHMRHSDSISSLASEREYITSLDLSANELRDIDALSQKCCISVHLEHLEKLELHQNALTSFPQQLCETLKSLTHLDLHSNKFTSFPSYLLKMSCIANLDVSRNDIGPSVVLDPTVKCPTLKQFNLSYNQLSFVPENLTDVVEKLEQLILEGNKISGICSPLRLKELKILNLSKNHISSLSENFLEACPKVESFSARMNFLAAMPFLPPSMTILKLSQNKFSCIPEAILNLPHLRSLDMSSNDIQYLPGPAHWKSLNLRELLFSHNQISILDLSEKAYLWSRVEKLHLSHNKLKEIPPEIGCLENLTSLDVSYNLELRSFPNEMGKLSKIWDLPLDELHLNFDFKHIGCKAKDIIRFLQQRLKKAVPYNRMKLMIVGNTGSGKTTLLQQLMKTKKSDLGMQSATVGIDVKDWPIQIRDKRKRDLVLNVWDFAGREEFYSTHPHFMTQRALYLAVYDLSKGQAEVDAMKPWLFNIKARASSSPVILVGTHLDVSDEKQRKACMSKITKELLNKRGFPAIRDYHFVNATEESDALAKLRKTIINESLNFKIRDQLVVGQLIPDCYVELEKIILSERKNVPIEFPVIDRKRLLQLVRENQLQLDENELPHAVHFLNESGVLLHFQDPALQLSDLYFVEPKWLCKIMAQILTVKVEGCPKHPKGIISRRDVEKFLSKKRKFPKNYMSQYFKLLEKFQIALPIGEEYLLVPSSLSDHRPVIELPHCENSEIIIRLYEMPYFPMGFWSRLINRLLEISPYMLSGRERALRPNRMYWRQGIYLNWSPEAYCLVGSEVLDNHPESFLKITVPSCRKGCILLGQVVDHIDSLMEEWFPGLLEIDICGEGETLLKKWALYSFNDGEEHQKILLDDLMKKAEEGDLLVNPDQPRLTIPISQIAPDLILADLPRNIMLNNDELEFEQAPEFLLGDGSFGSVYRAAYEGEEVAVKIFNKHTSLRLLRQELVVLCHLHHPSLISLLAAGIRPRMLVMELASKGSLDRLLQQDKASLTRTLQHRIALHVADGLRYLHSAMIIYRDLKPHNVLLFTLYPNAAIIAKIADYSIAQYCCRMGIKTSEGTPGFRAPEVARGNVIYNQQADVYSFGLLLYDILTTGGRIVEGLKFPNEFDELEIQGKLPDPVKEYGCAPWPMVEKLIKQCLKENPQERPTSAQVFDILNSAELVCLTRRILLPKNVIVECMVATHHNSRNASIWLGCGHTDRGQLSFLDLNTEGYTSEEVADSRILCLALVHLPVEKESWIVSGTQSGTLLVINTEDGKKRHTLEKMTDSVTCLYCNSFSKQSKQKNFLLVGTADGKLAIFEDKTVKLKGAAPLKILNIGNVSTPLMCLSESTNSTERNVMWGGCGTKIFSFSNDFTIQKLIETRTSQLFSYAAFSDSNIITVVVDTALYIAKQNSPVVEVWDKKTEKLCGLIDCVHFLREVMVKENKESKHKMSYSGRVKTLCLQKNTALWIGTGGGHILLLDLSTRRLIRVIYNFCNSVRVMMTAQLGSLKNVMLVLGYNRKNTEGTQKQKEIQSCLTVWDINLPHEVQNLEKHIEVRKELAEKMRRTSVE

off-target kinases [3] = molecular target: off-target kinases (Homo sapiens, UniProt Q13554); settings: CAMK2B (CaMKII beta), ZLYTE, ATP Km app
off-target kinases [4] = molecular target: off-target kinases (Homo sapiens, UniProt Q86UE8); settings: TLK2, LanthaScreen Binding
off-target kinases [5] = molecular target: off-target kinases (Homo sapiens, UniProt Q02763, R849W); settings: TEK (TIE2) R849W, mutant y, LanthaScreen Binding
off-target kinases (Homo sapiens, UniProt Q02763, R849W), sequence (Q02763 23-1124 R849W): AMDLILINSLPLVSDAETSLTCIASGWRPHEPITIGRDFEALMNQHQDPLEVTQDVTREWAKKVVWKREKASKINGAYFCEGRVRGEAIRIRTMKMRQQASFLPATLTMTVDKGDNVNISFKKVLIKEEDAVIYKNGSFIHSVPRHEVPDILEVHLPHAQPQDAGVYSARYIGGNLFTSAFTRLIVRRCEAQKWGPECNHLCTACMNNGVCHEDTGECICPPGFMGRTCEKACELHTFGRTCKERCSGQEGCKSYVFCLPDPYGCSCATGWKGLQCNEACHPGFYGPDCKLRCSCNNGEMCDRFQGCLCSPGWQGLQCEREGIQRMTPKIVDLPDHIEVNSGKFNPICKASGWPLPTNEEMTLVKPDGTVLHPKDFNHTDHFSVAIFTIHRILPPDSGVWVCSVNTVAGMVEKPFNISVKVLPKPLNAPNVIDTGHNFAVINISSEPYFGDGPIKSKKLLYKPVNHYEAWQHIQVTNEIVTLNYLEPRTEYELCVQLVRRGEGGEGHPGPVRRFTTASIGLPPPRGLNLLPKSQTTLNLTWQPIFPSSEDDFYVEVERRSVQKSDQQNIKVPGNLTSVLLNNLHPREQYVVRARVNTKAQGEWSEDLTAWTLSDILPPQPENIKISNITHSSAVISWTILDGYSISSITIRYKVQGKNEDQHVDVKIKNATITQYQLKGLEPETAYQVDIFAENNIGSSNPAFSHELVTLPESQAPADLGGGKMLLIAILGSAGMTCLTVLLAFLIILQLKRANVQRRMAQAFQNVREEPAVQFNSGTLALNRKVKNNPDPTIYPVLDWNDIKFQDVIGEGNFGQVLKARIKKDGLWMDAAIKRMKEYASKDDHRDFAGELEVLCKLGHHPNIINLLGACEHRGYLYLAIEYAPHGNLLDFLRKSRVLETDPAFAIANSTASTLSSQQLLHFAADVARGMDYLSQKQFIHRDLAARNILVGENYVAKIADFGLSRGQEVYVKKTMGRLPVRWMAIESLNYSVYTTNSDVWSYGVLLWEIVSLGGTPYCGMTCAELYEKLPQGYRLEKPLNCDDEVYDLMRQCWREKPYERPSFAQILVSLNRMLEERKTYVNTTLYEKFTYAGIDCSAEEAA

off-target kinases [6] = molecular target: T1, off-target kinases (Homo sapiens, UniProt Q96PY6); settings: NEK1, ATP Km app, ZLYTE
T1 sequence (Q96PY6 1-1258): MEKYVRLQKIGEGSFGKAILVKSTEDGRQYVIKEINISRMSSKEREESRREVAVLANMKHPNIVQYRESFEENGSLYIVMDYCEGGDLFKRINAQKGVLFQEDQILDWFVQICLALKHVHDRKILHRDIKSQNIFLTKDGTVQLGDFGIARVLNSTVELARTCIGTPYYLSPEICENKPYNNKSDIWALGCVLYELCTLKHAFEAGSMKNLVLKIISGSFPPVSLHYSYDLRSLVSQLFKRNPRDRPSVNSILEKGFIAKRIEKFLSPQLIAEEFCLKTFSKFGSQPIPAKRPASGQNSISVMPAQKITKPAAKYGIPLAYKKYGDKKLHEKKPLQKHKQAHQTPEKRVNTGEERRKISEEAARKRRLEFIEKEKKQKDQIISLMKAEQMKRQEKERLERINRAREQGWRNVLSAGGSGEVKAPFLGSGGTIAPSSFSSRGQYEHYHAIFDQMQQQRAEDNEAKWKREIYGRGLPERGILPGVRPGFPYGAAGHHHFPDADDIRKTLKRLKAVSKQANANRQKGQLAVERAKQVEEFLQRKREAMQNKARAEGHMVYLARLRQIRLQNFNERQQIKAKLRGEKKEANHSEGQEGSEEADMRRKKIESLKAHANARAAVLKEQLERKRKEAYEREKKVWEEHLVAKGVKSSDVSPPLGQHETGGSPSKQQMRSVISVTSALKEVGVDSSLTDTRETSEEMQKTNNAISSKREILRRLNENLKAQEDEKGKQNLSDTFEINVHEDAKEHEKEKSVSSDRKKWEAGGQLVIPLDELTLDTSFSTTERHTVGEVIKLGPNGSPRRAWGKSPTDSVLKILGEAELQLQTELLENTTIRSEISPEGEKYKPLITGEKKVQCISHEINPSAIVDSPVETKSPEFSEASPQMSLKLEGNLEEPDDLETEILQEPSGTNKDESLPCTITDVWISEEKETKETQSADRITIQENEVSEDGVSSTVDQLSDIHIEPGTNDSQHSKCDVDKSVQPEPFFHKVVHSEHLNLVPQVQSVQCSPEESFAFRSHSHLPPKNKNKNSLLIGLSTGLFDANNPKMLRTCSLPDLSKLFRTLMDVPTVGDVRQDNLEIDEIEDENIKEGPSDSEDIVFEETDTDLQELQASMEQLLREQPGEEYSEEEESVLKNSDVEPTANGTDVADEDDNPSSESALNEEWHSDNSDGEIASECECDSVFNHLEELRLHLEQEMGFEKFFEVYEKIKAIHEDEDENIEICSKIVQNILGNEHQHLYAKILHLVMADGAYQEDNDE

N#Cc1cc(-c2ncnc(Nc3ccc(N4CCN(C5COC5)CC4)cc3)n2)ccc1OC1CCOCC1 [Compound 1, 5-(4-((4-(4-(oxetan-3-yl)piperazin-1-yl)phenyl)amino)-1,3,5-triazin-2-yl)-2-((tetrahydro-2H-pyran-4-yl)oxy)benzonitrile]
inhibition (off-target kinases [1]; read-out: % Inhibition 1): 20%
inhibition (off-target kinases [1]; read-out: % Inhibition 2): 24%
inhibition (off-target kinases [1]; read-out: % Inhibition Avg): 22%
inhibition (off-target kinases [2]; LRRK2 G2019S FL, read-out: % Inhibition 1): 100%
inhibition (off-target kinases [2]; LRRK2 G2019S FL, read-out: % Inhibition 2): 99%
inhibition (off-target kinases [2]; LRRK2 G2019S FL, read-out: % Inhibition Avg): 99%
inhibition (off-target kinases [2]; LRRK2 G2019S, read-out: % Inhibition 1): 99%
inhibition (off-target kinases [2]; LRRK2 G2019S, read-out: % Inhibition 2): 100%
inhibition (off-target kinases [2]; LRRK2 G2019S, read-out: % Inhibition Avg): 100%
inhibition (off-target kinases [3]; read-out: % Inhibition 1): 11%
inhibition (off-target kinases [3]; read-out: % Inhibition 2): 8%
inhibition (off-target kinases [3]; read-out: % Inhibition Avg): 10%
inhibition (off-target kinases [4]; read-out: % Inhibition 1): 84%
inhibition (off-target kinases [4]; read-out: % Inhibition 2): 81%
inhibition (off-target kinases [4]; read-out: % Inhibition Avg): 83%
inhibition (off-target kinases [5]; read-out: % Inhibition 1): 40%
inhibition (off-target kinases [5]; read-out: % Inhibition 2): 41%
inhibition (off-target kinases [5]; read-out: % Inhibition Avg): 41%
inhibition (off-target kinases [6]; read-out: % Inhibition 1): 68%
inhibition (off-target kinases [6]; read-out: % Inhibition 2): 70%
inhibition (off-target kinases [6]; read-out: % Inhibition Avg): 69%
